Source: patent US9386767B2, “Derivatives of dillapiol and related monolignans and use thereof” (UNIVERSITY OF OTTAWA, priority 2011, dated 2016)
Several values for one entry are separate records, joined by “and”; a condition that tells them apart may be missing. Identical values can stand only once. Like-named read-outs stand apart in the source and are kept apart here.

Key:
CYP3A4 (BDGentest) = molecular target: T1, CYP3A4 (BDGentest) (Homo sapiens, UniProt P08684); test: New CYP3A4 bioassay with dibenzylfluorescein (DBF) substrate (Foster et al. 2011); assay type: biochemical; details: for IC50: human microsomes; for % Activity relative to dillapiol = 1: new CYP3A4 bioassay, inhibition relative to dillapiol
T1 construct: purchased BDGentest
T1 sequence (P08684 whole entry): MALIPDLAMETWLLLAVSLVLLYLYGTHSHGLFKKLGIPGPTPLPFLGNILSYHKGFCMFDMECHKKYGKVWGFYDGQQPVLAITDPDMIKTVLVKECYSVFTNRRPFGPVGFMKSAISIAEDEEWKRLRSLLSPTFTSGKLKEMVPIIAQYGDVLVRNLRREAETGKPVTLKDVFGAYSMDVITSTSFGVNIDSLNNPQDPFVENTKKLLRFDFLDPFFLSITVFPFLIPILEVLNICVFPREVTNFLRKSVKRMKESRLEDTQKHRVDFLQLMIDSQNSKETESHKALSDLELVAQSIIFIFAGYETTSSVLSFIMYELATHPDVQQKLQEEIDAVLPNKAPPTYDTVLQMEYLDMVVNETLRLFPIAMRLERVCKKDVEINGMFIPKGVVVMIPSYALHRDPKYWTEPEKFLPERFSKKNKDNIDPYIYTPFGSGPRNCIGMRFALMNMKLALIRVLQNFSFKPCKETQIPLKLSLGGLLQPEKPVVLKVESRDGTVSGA
Method: (§1) In the second set of experiments, new CYP3A4 enzyme inhibition assays were conducted with a designed set of analogs and newer method described by Foster et al. (J. Agric. Food Chem, 2011, 59(9):5159-5163). This assay using the substrate dibenzylfluorescein (DBF) is considered more representative of CYP3A4 activity as compared to the benzyloxyresorufin assay previously used (Budzinski et al., 2000, Phytomedicine, 7(4):273-282).
(§2) Aliquots (10 μL) of stock solutions of the undiluted products were screened for their ability to inhibit CYP3A4 (BDGentest) metabolism of the non-fluorescent dibenzylfluorescein (DBF) substrates to the fluorescent metabolite using an in vitro fluorometric microtiter plate assay (CytoFluor Series 4000 multi-well plate reader). Briefly, assays were performed with 10 μL of product in clear-bottom, opaque-welled microtiter plates (96 well, Corning Costar). Control and control blank wells contained 5% ethanol, and test and test blank wells contained the product. All wells tested contained distilled water, β-nicotinamide adenine dinucleotide phosphate, reduced form (NADPH, Sigma Chemicals), and the enzyme substrate DBF (final concentration of 1 μM/well), for a total reaction volume of 200 μL. Control and test wells also contained live isozyme, within human microsomes, in phosphate buffer solution (PBS; 0.5 M, pH 7.4), and control blank and test blank wells contained denatured isoenzyme in PBS. Fluorescence was measured at 485 nm excitation and 530 nm emission, with a gain of 50.

CYP3A4 = molecular target: T2, CYP3A4 (Homo sapiens, UniProt P08684); test: as above; assay type: biochemical; details: human, CYP3A4 (BDGentest) isozyme within human microsomes, pH 7.4, probe dibenzylfluorescein (DBF), 1 μM final, DBF substrate 1 μM, human microsomes
T2 construct: purchased BDGentest
T2 sequence (P08684 whole entry): as above
Method: as §1, §2

human cytochrome CYP3A4 [1] = molecular target: T3, human cytochrome CYP3A4 (Homo sapiens, UniProt P08684); test: CYP3A4 inhibition assay of dillapiol derivatives (earlier benzyloxyresorufin assay); assay type: biochemical; details: for Rel. Activity Dillapiol = 1.0: CYP3A4 inhibition relative to dillapiol
T3 sequence (P08684 whole entry): as above
Method: A suite of dillapiol derivatives were synthesized and assayed for their capacity to inhibit human cytochrome CYP3A4. For each molecule, experimental IC50 values for CYP3A4 inhibition were determined. These IC50 values together with the log of the octanol-water partition coefficient (logP) and molecular refractivity (MR) are shown in Table 1, and were used as parameters to model a quantitative structure-activity relationship (QSAR). The resulting equations were used to guide the design of further derivatives with enhanced CYP3A4 inhibition.
as §1

parasitemia = details: co-administration of dillapiol with genudin, mice; cited from earlier work
mosquito larvae = details: co-administration of dillapiol with alpha-terthienyl; increased toxicity in mosquito larvae; cited from earlier work
human cytochrome CYP3A4 [2] = molecular target: T3, human cytochrome CYP3A4; details: Budzinski et al., 2000; cited from earlier work
[3] = DBF substrate 1 μM, read-out: IC50 (converted)
[4] = Table 1, CYP3A4 inhibition, read-out: IC50

COc1c(CCCO)cc2c(c1OC)OCO2
IC50 (CYP3A4 (BDGentest); [3]): 16.6 µM
% Activity relative to dillapiol = 1 (CYP3A4 (BDGentest)): 0.57
IC50 (CYP3A4): 16 µM

COc1c(/C=C/CC(O)(c2ccccc2)c2ccccc2)cc2c(c1OC)OCO2 [Compound 1]
CYP3A4 inhibition (in words) (CYP3A4 (BDGentest)): increased inhibition of CYP3A4 compared to dillapiol
IC50 (CYP3A4 (BDGentest); [3]): 1.58 µM
% Activity relative to dillapiol = 1 (CYP3A4 (BDGentest)): 5.8
CYP3A4 inhibition compared with dillapiol (in words) (human cytochrome CYP3A4 [1]; Table 1): at least four times lower than dillapiol
Rel. Activity Dillapiol = 1.0 (human cytochrome CYP3A4 [1]; Table 1): 100 and 114
IC50 (human cytochrome CYP3A4 [1]; [4]): 3.6 µM

COc1c(CCCOC(=O)c2ccccc2)cc2c(c1OC)OCO2 [Compound 12]
CYP3A4 inhibition (in words) (CYP3A4 (BDGentest)): increased inhibition of CYP3A4 compared to dillapiol
IC50 (CYP3A4 (BDGentest); [3]): 2.1 µM and 2.11 µM
% Activity relative to dillapiol = 1 (CYP3A4 (BDGentest)): 4.4
CYP3A4 inhibition compared with dillapiol (in words) (human cytochrome CYP3A4 [1]; Table 1): at least four times lower than dillapiol
Rel. Activity Dillapiol = 1.0 (human cytochrome CYP3A4 [1]; Table 1): 29
IC50 (human cytochrome CYP3A4 [1]; [4]): 14 µM

C=CCc1cc2c(c(COCC(=O)OCC)c1OC)OCO2 [Compound 13]
CYP3A4 inhibition compared with dillapiol (in words) (human cytochrome CYP3A4 [1]; Table 1): at least four times lower than dillapiol
Rel. Activity Dillapiol = 1.0 (human cytochrome CYP3A4 [1]; Table 1): 4.2
IC50 (human cytochrome CYP3A4 [1]; [4]): 98 µM

C=CCc1cc2c(cc1O)OCO2 [Compound 14]
Rel. Activity Dillapiol = 1.0 (human cytochrome CYP3A4 [1]; Table 1): 0.75
IC50 (human cytochrome CYP3A4 [1]; [4]): 550 µM

C=CCc1cc2c(c(S(C)(=O)=O)c1OC)OCO2 [Compound 15]
Rel. Activity Dillapiol = 1.0 (human cytochrome CYP3A4 [1]; Table 1): 0.37
IC50 (human cytochrome CYP3A4 [1]; [4]): 1100 µM

C=CCc1cc2c(c(Sc3ccccc3)c1OC)OCO2 [Compound 16]
Rel. Activity Dillapiol = 1.0 (human cytochrome CYP3A4 [1]; Table 1): 0.84
IC50 (human cytochrome CYP3A4 [1]; [4]): 480 µM

C=CCc1cc2c(c(Br)c1O)OCO2 [Compound 17]
Rel. Activity Dillapiol = 1.0 (human cytochrome CYP3A4 [1]; Table 1): 0.68
IC50 (human cytochrome CYP3A4 [1]; [4]): 600 µM

C=CCc1cc2c(c(SC)c1OC)OCO2 [Compound 18]
IC50 (human cytochrome CYP3A4 [1]): 320 µM
Rel. Activity Dillapiol = 1.0 (human cytochrome CYP3A4 [1]; Table 1): 1.3

C=CCc1cc2c(c(SC)c1O)OCO2 [Compound 19]
Rel. Activity Dillapiol = 1.0 (human cytochrome CYP3A4 [1]; Table 1): 1.0
IC50 (human cytochrome CYP3A4 [1]; [4]): 420 µM

C=CCc1cc2c(c(Sc3ccc(OC)cc3)c1OC)OCO2 [Compound 22]
Rel. Activity Dillapiol = 1.0 (human cytochrome CYP3A4 [1]; Table 1): 0.67
IC50 (human cytochrome CYP3A4 [1]; [4]): 660 µM

C=CCc1cc2c(c(S(=O)(=O)c3ccc(OC)cc3)c1O)OCO2 [Compound 23]
Rel. Activity Dillapiol = 1.0 (human cytochrome CYP3A4 [1]; Table 1): 1.8
IC50 (human cytochrome CYP3A4 [1]; [4]): 230 µM

C=CCc1cc2c(c(SCc3ccccc3)c1O)OCO2 [Compound 24]
Rel. Activity Dillapiol = 1.0 (human cytochrome CYP3A4 [1]; Table 1): 1.6

C=CCc1cc2c(c(SCc3ccccc3)c1OC)OCO2 [Compound 25]
CYP3A4 inhibition compared with dillapiol (in words) (human cytochrome CYP3A4 [1]; Table 1): at least four times lower than dillapiol
Rel. Activity Dillapiol = 1.0 (human cytochrome CYP3A4 [1]; Table 1): 9 and 9.3
IC50 (human cytochrome CYP3A4 [1]; [4]): 44 µM

C=CCc1cc2c(c([S+]([O-])c3ccccc3)c1OC)OCO2 (centres unmarked) [Compound 26]
Rel. Activity Dillapiol = 1.0 (human cytochrome CYP3A4 [1]; Table 1): 2.7
IC50 (human cytochrome CYP3A4 [1]; [4]): 150 µM

C=CCc1cc2c(c([S+]([O-])Cc3ccccc3)c1OC)OCO2 (centres unmarked) [Compound 27]
CYP3A4 inhibition compared with dillapiol (in words) (human cytochrome CYP3A4 [1]; Table 1): at least four times lower than dillapiol
Rel. Activity Dillapiol = 1.0 (human cytochrome CYP3A4 [1]; Table 1): 6.4
IC50 (human cytochrome CYP3A4 [1]; [4]): 64 µM

C=CCc1cc2c(c(OC)c1OC)OCO2 [dillapiol, 4,5 dimethoxy-6-(2-propenyl)-1,3-benzodioxole]
IC50 (CYP3A4 (BDGentest); IC50, DBF substrate 1 μM): 9.45 µM
% Activity relative to dillapiol = 1 (CYP3A4 (BDGentest)): 1
increase of parasitemia clearance (parasitemia): 29%
synergism factor (mosquito larvae): 1.9
IC50 (human cytochrome CYP3A4 [1]): 410 µM
Rel. Activity Dillapiol = 1.0 (human cytochrome CYP3A4 [1]; Table 1): 1.0
inhibition of human cytochrome P450 3A4 (in words) (human cytochrome CYP3A4 [2]): inhibits the human cytochrome P450 3A4 (CYP3A4) enzyme
